# From patent US20020072051A1, “Screen for identifying inhibitors of GPI anchoring” (priority 2000, published 2002)
# Assays:
# [1] = tested on: wild type yeast strain; experiment: SDS hypersensitivity assay; type: cell-based; details: SDS in the growth media
# Description: Published data on a mcd4 mutant strain have shown that it has a number of characteristic phenotypes including increased sensitivity to SDS, an osmotic destabilizing detergent. The presence of as little as 0.004% SDS in the growth media leads to increased sensitivity of a wild type yeast strain to GPI-anchor inhibitors and thereby allows for the rapid screening of analogs. Again, this is a potentially information-rich assay but is subject to the same technical limitations discussed above for the OER assay.
# [2] = tested on: UPR pathway; experiment: UPRE::lacZ reporter induction screen (primary assay); type: cell-based, Saccharomyces cerevisiae; details: yeast cells containing 3X UPRE-CYClMINlacz, S. cerevisiae Δmdr mutant
# Description: Several UPRE::lacz reporter plasmids were constructed and used to transform a S. cerevisiae Δ mdr mutant and the transformants assessed for their ability to selectively respond to tunicamycin. The reporter sequence 3X UPRE-CYClMINlacz (FIG. 2) provided a selective, sensitive, and robust screening response to tunicamycin treatment and was selected for use in the Very High Throughput Screen (vHTS; Example 2). […] The activity of an associated β-galactosidase reporter gene thus served as an indirect signal of UPR-pathway stimulation.
# The yeast strains were diploid Δmdr mutants of Saccharomyces cerevisiae: MMB 1663 (3XUPRE CYClMIN::lacz). Yeast glycerol stocks were prepared by culturing MMB 1663 (3XUPRE CYClMIN::lacZ) overnight to an OD 600 nm of 0.500. The culture was concentrated by centrifugation at 1000×g for 10 minutes and the pellet resuspended in fresh medium to an OD 600 nm of 1.00. An equal volume of HR Medium with 50% glycerol was added, producing a suspension of cells with an OD 600 nm of 0.500 and a final concentration of 25% glycerol. […]
# 4. […] (Packard TopSeal-A Plate Tape is not required for either plate reader when volumes are ≦50 μl for 384-well or ≦200 μl for 96-well plates).
# 5. After 90 minutes, β-galactosidase activity was read, using a 90 to 240 minute window. […]
# [3] = tested on: MCD4 catalyzed step in the GPI-anchor biosynthesis pathway; details: cited from earlier work
# [4] = tested on: GPI anchor biosynthesis; experiment: in-vitro GPI anchor biosynthesis assay; type: biochemical; details: UDP-[3H]-GlcNAc, ATP, Coenzyme A, GDP-mannose; TLC
# Description: Crude lysate from hypotonic lysing of spheroplasts as well as microsomal preparations can be used as an enzyme source for a coupled in vitro assay. Addition of UDP-[^3H]-GlcNAc, ATP, Coenzyme A and GDP-mannose provides the necessary substrates to synthesize a complete precursor from endogenous PI and fatty acid.
# [5] = target: T1, Mcd4p (Saccharomyces cerevisiae, UniProt P36051); experiment: MCD4 overexpression and inositol-labeling experiments in mcd4-174; type: cell-based; details: MCD4 overexpression; mcd4-174 mutant strain
# T1 construct: overexpressed by cloning the gene under the control of its endogenous promoter in 2 micron (multi-copy) vectors; expressed in transfected cells; host or cells: yeast (S. cerevisiae) cells carrying MCD4 on a 2 micron multi-copy vector; also the mcd4-174 mutant strain for inositol labelling
# T1 sequence (P36051 1-919): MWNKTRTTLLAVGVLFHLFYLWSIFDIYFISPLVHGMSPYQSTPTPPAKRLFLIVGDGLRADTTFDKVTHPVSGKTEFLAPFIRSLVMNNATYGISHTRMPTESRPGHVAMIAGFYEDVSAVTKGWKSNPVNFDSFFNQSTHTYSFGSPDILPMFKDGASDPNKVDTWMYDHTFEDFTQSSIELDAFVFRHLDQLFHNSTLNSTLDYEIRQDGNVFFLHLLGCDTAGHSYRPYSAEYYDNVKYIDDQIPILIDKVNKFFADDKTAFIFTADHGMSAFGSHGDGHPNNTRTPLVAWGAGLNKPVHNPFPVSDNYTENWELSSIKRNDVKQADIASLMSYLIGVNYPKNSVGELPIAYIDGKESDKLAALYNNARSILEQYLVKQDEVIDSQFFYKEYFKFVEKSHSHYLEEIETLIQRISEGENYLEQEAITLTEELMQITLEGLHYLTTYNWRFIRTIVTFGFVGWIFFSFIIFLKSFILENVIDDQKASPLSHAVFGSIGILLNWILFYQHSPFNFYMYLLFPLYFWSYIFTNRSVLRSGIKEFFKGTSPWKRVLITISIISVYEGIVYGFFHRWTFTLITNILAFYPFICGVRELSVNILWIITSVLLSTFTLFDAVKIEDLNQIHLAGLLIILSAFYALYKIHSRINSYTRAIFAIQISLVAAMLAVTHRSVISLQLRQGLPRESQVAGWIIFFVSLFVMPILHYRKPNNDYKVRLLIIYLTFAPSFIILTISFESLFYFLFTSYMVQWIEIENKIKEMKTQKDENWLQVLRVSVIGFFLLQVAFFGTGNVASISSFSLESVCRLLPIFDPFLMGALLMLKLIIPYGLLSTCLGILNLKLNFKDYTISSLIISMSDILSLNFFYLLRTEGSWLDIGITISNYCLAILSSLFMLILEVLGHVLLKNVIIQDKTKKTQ
# Description: An overexpression resistance (OER) assay was employed to determine the cellular target of compounds isolated via the primary assay. Each of the known genes in the GPI pathway were overexpressed by cloning the gene under the control of its endogenous promoter in 2 micron (multi-copy) vectors. This is a rapid and very powerful assay, but has certain limitations. For example, with a number of hits, precipitation of the compound can be observed when spotted onto plates. […] In such cases, the ability to detect increased resistance in the shoulder region is limited by the small zone size. […] Therefore, the OER assay, while very powerful and rapid, may be limiting when working with compounds that are weakly AF.
# Studies on a natural compound, CJ-19089 (also known as YW3548, a terpenoid lactone) have documented that this compound targets the MCD4 catalyzed step in the GPI-anchor biosynthesis pathway. […] This inhibitor has proven to be a very valuable tool for examining the pathway and establishing standards for chromatographic analysis. […] CJ-19089 was used as a positive control in each assay and was used in comparison to untreated samples for assay development.
compound,measurement,setting,value
OC(Cn1cncn1)(Cn1cncn1)c1ccc(F)cc1F [fluconazole],result on SDS plates,[1],unambiguous positive result
tunicamycin,lacZ reporter gene transcription (UPR-pathway stimulation),[2],over transcribed
C=C1[C@@H]2C[C@@H]3[C@H](C(C)C)[C@@H](OC(=O)CC(C)(O)CC(C)CC)C[C@@]3(C)C[C@H]2/C(C)=C\C[C@@H]2[C@@H](C)OC(=O)[C@H](O)[C@]12O (some centres unmarked) [CJ-19089],incorporation of [3H]myo-inositol into proteins,[3],prevents the incorporation of [^3H]myo-inositol into proteins
same,step of GPI anchor biosynthesis blocked,[3],specifically blocks the addition of the third mannose to the intermediate structure Man2-GlcN-acylPI
same,toxicity,[3],toxic
same,transport of GPI-anchored proteins to the Golgi apparatus,[3],prevents transport of GPI-anchored proteins to the Golgi apparatus
same,accumulation of CJ-lipid,[4],the CJ-lipid can be visualized
same,cellular target,[5],the target of this compound is Mcd4p
